The values below come from patent US20200276273A1, “METHOD FOR TREATING MYELOID LEUKEMIA” (UNIVERSITY OF MIAMI, priority 2017, published 2020).

The conditions of data set [1]: nude mice, 10 μg B.i.d. s.c. An excerpt: Eight-weeks-old female athymic nude mice (Hsd: Athymic Nude-Foxn1^nu), obtained from Harlan Laboratories, were housed in sterile cages in a temperature-controlled room with a 12-hours light\12-hours dark schedule. Mice were fed autoclaved chow and water ad libitum. Human myelogenous leukemia cells KG-1, KG-1a, K-562 and THP-1 were used in log phase of growth. Xenografts were initiated by subcutaneous (s.c.) injection of 1×10^7 cells into the right flank of nude mice. For each cell line, once tumor reached an appropriate size (approx. 40 mm3), mice were randomly divided into two groups of 15 animals each, which received s.c. injections twice a day into the left flank of, phosphate-buffered saline (PBS) ([…] containing 0.1% DMSO, or MIA-602 at a dose of 10 μg. […] At the end of the experiment, mice were sacrificed under carbon dioxide followed by cervical dislocation. All animal procedures were performed in compliance with the Guide for the Care and Use of Laboratory Animals published by the NIH, and approved by the Animal Care and Use Committee of the University of Miami.

The subject of data set [2] is pituitary. To be noted: biological activity on the pituitary; cited from earlier work.
The subject of data set [3] is KG-1 cells. Put plainly: Cellular uptake of fluorescently labeled MIA-602. The conditions noted are these: 2.5 μM Alexa Fluor 555 labelled peptide, 30 minutes.
Protocol: For the detection of cellular uptake, MIA-602 was conjugated to Alexa Fluor 555 according to the manufacturer's instructions (Alexa Fluor 555 NHS ester, tris(triethylammonium salt, Life Technologies, Carlsbad, Calif.). Cells were incubated with 2.5 μM fluorescently labelled peptide or unconjugated fluorophore for 30 minutes (1×10^6 cells/tube). At the end of incubation, cells were washed 3 times in PBS, fixed in 4% paraformaldehyde, mounted, and imaged as described above. ImageJ software (NIH, Bethesda, Md.) was used to recolor the images, for the purpose of enhancing visual perception of cellular uptake.
Data set [4] concerns the target GHRH splice variant 1 receptor (human).
The target is the same in data set [5]. This is another data set of the same source.
The target is the same in data set [6]. This is another data set of the same source.
Where [7] appears, read: 30 days, treated animals vs those bearing no tumors.

Starred links: 1 amine or outer side, 2 acyl side, 3 side chain; linkers in the order of their positions; H or OH if unused. Non-standard residues stand in square brackets, D forms with d. Residues, ends and D or L forms follow the SMILES beside them. *: point of attachment. Tyr(Me) = O-methyl-tyrosine, COc1ccc(C[C@H](N[*:1])C(=O)[*:2])cc1; Phe(F5) = N[C@@H](Cc1c(F)c(F)c(F)c(F)c1F)C(=O)O; hArg = N=C(N)NCCCC[C@H](N)C(=O)O; 12Ado = NCCCCCCCCCCCC(=O)O; Nle = CCCC[C@H](N)C(=O)O; Orn = NCCC[C@H](N)C(=O)O; Abu = CC[C@H](N)C(=O)O; PhAc = O=C(Cc1ccccc1)*

On to `CCCC[C@H](NC(=O)[C@@H](NC(=O)[C@H](CC(=O)O)NC(=O)[C@H](CCC(N)=O)NC(=O)[C@H](CC(C)C)NC(=O)[C@H](CC(C)C)NC(=O)[C@H](CCCN)NC(=O)[C@H](Cc1c[nH]cn1)NC(=O)[C@H](C)NC(=O)[C@H](CO)NC(=O)[C@H](CC(C)C)NC(=O)[C@H](CCC(N)=O)NC(=O)[C@H](CC)NC(=O)[C@H](CC(C)C)NC(=O)[C@@H](NC(=O)[C@H](CCCN)NC(=O)[C@H](Cc1c[nH]cn1)NC(=O)[C@H](Cc1ccc(OC)cc1)NC(=O)[C@H](CCCCNC(=N)N)NC(=O)[C@H](C)NC(=O)[C@@H](NC(=O)[C@H](Cc1c(F)c(F)c(F)c(F)c1F)NC(=O)[C@@H](NC(=O)[C@H](C)NC(=O)[C@H](CC(=O)O)NC(=O)[C@@H](CCCNC(=N)N)NC(=O)[C@H](Cc1ccc(O)cc1)NC(=O)CCCCCCCCCCCNC(=O)Cc1ccccc1)[C@@H](C)CC)[C@@H](C)O)C(C)C)[C@@H](C)CC)C(=O)N[C@H](CCCNC(=N)N)C(=O)N[C@@H](CCCCNC(=N)N)C(N)=O` [MIA-602, [PhAc-Ada^0-Tyr^1, D-Arg^2, Fpa5^6, Ala^8, Har^9, Tyr(Me)^10, His^11, Orn^12, Abu^15, His^20, Orn^21, Nle^27, D-Arg^28, Har^29]hGH-RH(1-29)NH2] ({PhAc-12Ado}-Y[dR]DAI[Phe(F5)]TA[hArg]Y(Me)H[Orn]VL[Abu]QLSAH[Orn]LLQDI[Nle][dR][hArg]-NH2), for which, in data set [1] (setting [7]), the body weights result is given as “No significant differences”; the “weights of various organs (liver, spleen, and kidneys)” value was “No significant differences”. Further, the “macroscopic observation of organs” value in data set [1] (after treatment) is “no differences”.
As to “Tyr-Ala-Asp-Ala-Ile^5-Phe-Thr-Asn-Ser-Tyr^10-Arg-Lys-Val-Leu-Gly^15-Gln-Leu-Ser-Ala-Arg^20-Lys-Leu-Leu-Gln-Asp^25-Ile-Met-Ser-Arg^29-NH2 [GHRH(1-29)]”, in data set [2], the “potency retained relative to native GHRH” value is no less than 50%.
Turning to “fluorescently labeled MIA-602: MIA-602 conjugated to Alexa Fluor 555 for the detection of cellular uptake ({PhAc-12Ado}-Y[dR]DAI[Phe(F5)]TA[hArg][Tyr(Me)]H[Orn]VL[Abu]QLSAH[Orn]LLQDI[Nle][dR][hArg]-NH2; also: Alexa Fluor 555 conjugated via NHS ester, site not given here)”, the cellular uptake result in data set [3] was “not observed”.
In turn, {PhAc-12Ado}-Y[dR]DAI[Phe(F5)]TA[hArg][Tyr(Me)]H[Orn]VL[Abu]QLSAH[Orn]LLQDI[Nle][dR][hArg]-NH2 yielded a reduction in cell proliferation (cell count, 5 µM MIA-602, 24 and 48 hours) in data set [4] of 80%. The molecule also showed a fold-change in expression of cell death-related genes (qPCR array, 24 h MIA-602) in data set [5] of 28.9 fold. In data set [6], this molecule came in with a decrease of phosphorylation of Akt (Western blot, 8 h incubation with MIA-602) of 85%.
